Measured values taken from patent US10421761B2, “Compounds for kinase modulation, and indications therefor” (Plexxikon Inc., priority 2013, dated 2019).
“Also recorded” adds a separate entry of the source.

What was measured:
[1] = test system: gastric cancer cell line MKN28; settings: cited from earlier work
B9 cells = assay: Anchorage-independent growth assay of B9 cells in soft agar; assay type: cell-based, mouse; settings: 3 weeks; for effect on vemurafenib-induced B9 colony formation: combination with vemurafenib, soft agar
Method: Anchorage-independent growth assay. 2.5×10^4 B9 cells were plated in each well of a six-well plate with a bottom layer of 1% and a top layer of 0.4% low melting agar (Sigma A4018, Dallas, Tex.) containing RPMI1640 medium with 10% FBS. For RAF inhibitor study, B9 cells grown in soft agar were treated with vemurafenib, compound P-1000 or compound A at indicated concentration or dimethyl sulfoxide (DMSO) for 3 weeks. For EGFR ligand study, B9 cells grown in soft agar were treated with AREG (R&D systems 989-AR, Minneapolis, Minn.), TGFα (R&D systems 239-A, Minneapolis, Minn.) or HB-EGF (R&D systems 259-HE, Minneapolis, Minn.) at the indicated concentrations for 3 weeks. For vemurafenib and erlotinib combination study, B9 cells grown in soft agar were treated with vemurafenib, erlotinib or a combination of the two compounds at the indicated concentrations or DMSO for 3 weeks. Anchorage-independent colonies ≥100 μm were scored using AxioVision Rel 4.8 software (CarlZeiss, Wake Forest, N.C.).
B9 cells grown in soft agar were treated with AREG, TGFα or HBEGF at the indicated concentrations for 3 weeks. Anchorage-independent colonies ≥100 μm were scored. B9 cells grown in soft agar were treated with vemurafenib or a combination of vemurafenib and erlotinib at the indicated concentrations for 3 weeks. Anchorage-independent colonies ≥100 μm were scored.

BRAF V600E = biological target: T1, BRAF V600E (Homo sapiens, UniProt P15056, V600E); assay: BRAF V600E biochemical kinase activity assay (AlphaScreen, biotin-MEK1 substrate); settings: BRAF V600E biochemical inhibitory activity
T1 construct: purchased Upstate Biotechnology
T1 sequence (P15056 whole entry V600E): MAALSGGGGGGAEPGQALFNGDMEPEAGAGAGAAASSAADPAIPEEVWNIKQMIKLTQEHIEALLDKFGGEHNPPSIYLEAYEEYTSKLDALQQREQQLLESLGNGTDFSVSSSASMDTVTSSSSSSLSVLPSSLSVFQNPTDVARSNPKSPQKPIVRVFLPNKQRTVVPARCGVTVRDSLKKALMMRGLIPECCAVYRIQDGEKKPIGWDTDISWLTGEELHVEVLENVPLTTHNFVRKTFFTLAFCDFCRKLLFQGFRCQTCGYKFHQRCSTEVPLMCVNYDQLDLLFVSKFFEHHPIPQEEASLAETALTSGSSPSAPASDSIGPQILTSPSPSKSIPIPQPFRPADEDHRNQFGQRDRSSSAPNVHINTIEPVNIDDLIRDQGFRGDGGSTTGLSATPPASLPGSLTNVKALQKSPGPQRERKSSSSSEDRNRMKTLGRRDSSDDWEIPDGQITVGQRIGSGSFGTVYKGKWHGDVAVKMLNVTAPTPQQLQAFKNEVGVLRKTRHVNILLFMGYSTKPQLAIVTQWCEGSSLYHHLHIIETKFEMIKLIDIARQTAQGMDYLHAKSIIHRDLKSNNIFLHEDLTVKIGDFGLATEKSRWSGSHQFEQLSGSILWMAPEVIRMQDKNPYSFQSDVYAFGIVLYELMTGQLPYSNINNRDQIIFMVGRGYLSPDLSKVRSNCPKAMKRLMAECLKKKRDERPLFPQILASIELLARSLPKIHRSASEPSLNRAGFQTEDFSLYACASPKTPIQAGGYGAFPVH

B9 (HRAS Q61L) cell line = assay: B9 P-ERK cell activation assay (AlphaScreen); assay type: cell-based, mouse; settings: for EC50: Mus musculus, P-ERK cell activation, B9, numeric bounds, read-out: Cell activity (EC50 μM) B9_pERK
Procedure, shortened: (§1)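 Phospho-ERK1/2 (Thr202/Tyr204) in lysates quantified via AlphaScreen bead proximity, after one-hour, 37° C. exposure of cells to eight compound concentrations. Lines: IPC-298 human melanoma with activated NRAS; B9 mouse squamous carcinoma with activated HRAS.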

[2] = test system: IPC-298 (NRAS Q61L) cell line; assay: IPC-298 P-ERK cell activation assay (AlphaScreen); assay type: cell-based, human; settings: for EC50: Homo sapiens, P-ERK cell activation, IPC-298, numeric bounds, read-out: Cell activity (EC50 μM) IPC-298_P-ERK
Procedure, shortened: as §1

[3] = test system: A375 (BRAF V600E) cell line; assay: A375 P-ERK inhibition assay (AlphaScreen); assay type: cell-based, human; settings: for IC50: Homo sapiens, A-375, A375_P-ERK
Procedure, shortened: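 Phospho-ERK1/2 (Thr202/Tyr204) detected in lysates by AlphaScreen proximity signal, pairing a total-ERK antibody with a phospho-specific antibody. Before lysis, A375 cells received compound as an 8-point titration for one hour at 37° C.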

[4] = test system: mutant BRAF V600 driven melanoma; settings: cited from earlier work

## COc1ccc2c(c1)c(CC(=O)O)c(C)n2C(=O)c1ccc(Cl)cc1 [indomethacin]
[1]
  proliferation and growth of MKN28: significantly inhibit proliferation and growth

## CS(=O)(=O)Nc1ccc([N+](=O)[O-])cc1OC1CCCCC1 [NS-398]
[1]
  proliferation and growth of MKN28: significantly inhibit proliferation and growth

## CCCS(=O)(=O)Nc1ccc(F)c(C(=O)c2c[nH]c3ncc(Cl)cc23)c1F [P-1000, N-[3-(5-chloro-1H-pyrrolo[2,3-b]pyridine-3-carbonyl)-2,4-difluoro-phenyl]propane-1-sulfonamide]
B9 cells; colonies ≥100 μm scored
  B9 colony formation / anchorage-independent growth in soft agar: stimulated B9 colony formation; also recorded: increased anchorage independent cell growth

## C#Cc1cccc(Nc2ncnc3cc(OCCOC)c(OCCOC)cc23)c1 [Erlotinib]
B9 cells
  effect on vemurafenib-induced B9 colony formation: inhibited
B9 cells; listed as erlotinib
  effect on vemurafenib-induced B9 colony formation: antagonizes vemurafenib-induced B9 colony formation

## CCN(C)S(=O)(=O)Nc1cccc(C(=O)c2c[nH]c3ncnc(NC4CC4)c23)c1F [P-2063, 4-(cyclopropylamino)-5-[3-[[ethyl(methyl)sulfamoyl]amino]-2-fluoro-benzoyl]-7H-pyrrolo[2,3-d]pyrimidine]
BRAF V600E
  IC50: 0.0001 to 1 µM
B9 (HRAS Q61L) cell line
  EC50: > 10 µM
[2]
  EC50: > 10 µM
[3]
  IC50: 0.0001 to 1 µM

## CC(C)(C)c1nc(-c2cccc(NS(=O)(=O)c3c(F)cccc3F)c2F)c(-c2ccnc(N)n2)s1 [dabrafenib, reference compound]
B9 (HRAS Q61L) cell line; RAS mutant cell line B9, one hour treatment
  pERK activation: unusual bell-shaped pERK activation curve
[2]; RAS mutant cell line IPC-298, one hour treatment
  pERK activation: unusual bell-shaped pERK activation curve
[3]; BRAF V600E cell line A375
  pERK inhibition: highly potent inhibitor
[4]
  tumor response in patients: objective tumor response

## N#Cc1ccnc2[nH]cc(C(=O)c3c(F)ccc(NS(=O)(=O)N4CCCC4)c3F)c12 [P-2019, N-[3-(4-cyano-1H-pyrrolo[2,3-b]pyridine-3-carbonyl)-2,4-difluoro-phenyl]pyrrolidine-1-sulfonamide]
BRAF V600E
  IC50: 0.0001 to 1 µM
B9 (HRAS Q61L) cell line
  EC50: > 10 µM
[2]
  EC50: > 10 µM
[3]
  IC50: 0.0001 to 1 µM

## O=C(c1cc(Cl)cc(NS(=O)(=O)N2CC[C@@H](F)C2)c1F)c1c[nH]c2ncc(-c3cnc(C4CC4)nc3)cc12 [P-2174, (3R)—N-[5-chloro-3-[5-(2-cyclopropylpyrimidin-5-yl)-1H-pyrrolo[2,3-b]pyridine-3-carbonyl]-2-fluoro-phenyl]-3-fluoro-pyrrolidine-1-sulfonamide]
BRAF V600E
  IC50: 0.0001 to 1 µM
B9 (HRAS Q61L) cell line
  EC50: > 10 µM
[2]
  EC50: > 10 µM
[3]
  IC50: 0.0001 to 1 µM

## CCN(C)S(=O)(=O)Nc1ccc(F)c(C(=O)c2c[nH]c3ncnc(NCCCOC)c23)c1F [P-2116, 5-[3-[[ethyl(methyl)sulfamoyl]amino]-2,6-difluoro-benzoyl]-4-(3-methoxypropylamino)-7H-pyrrolo[2,3-d]pyrimidine]
BRAF V600E
  IC50: 0.0001 to 1 µM
B9 (HRAS Q61L) cell line
  EC50: > 10 µM
[2]
  EC50: > 10 µM
[3]
  IC50: 0.0001 to 1 µM

## O=C(c1c(F)ccc(NS(=O)(=O)C2CCCCC2)c1F)c1c[nH]c2ncnc(NCC3CC3)c12 [P-2049, N-[3-[4-(cyclopropylmethylamino)-7H-pyrrolo[2,3-d]pyrimidine-5-carbonyl]-2,4-difluoro-phenyl]cyclohexanesulfonamide]
BRAF V600E
  IC50: 0.0001 to 1 µM
B9 (HRAS Q61L) cell line
  EC50: > 10 µM
[2]
  EC50: > 10 µM
[3]
  IC50: 0.0001 to 1 µM

## O=C(c1c(F)ccc(NS(=O)(=O)C2CCCCC2)c1F)c1c[nH]c2nccc(Cl)c12 [P-2014, N-[3-(4-chloro-1H-pyrrolo[2,3-b]pyridine-3-carbonyl)-2,4-difluoro-phenyl]cyclohexanesulfonamide]
BRAF V600E
  IC50: 0.0001 to 1 µM
B9 (HRAS Q61L) cell line
  EC50: > 10 µM
[2]
  EC50: > 10 µM
[3]
  IC50: 0.0001 to 1 µM

## CCN(C)S(=O)(=O)Nc1cccc(C(=O)c2c[nH]c3ncnc(NCCOC)c23)c1F [P-2073, 5-[3-[[ethyl(methyl)sulfamoyl]amino]-2-fluoro-benzoyl]-4-(2-methoxyethylamino)-7H-pyrrolo[2,3-d]pyrimidine]
BRAF V600E
  IC50: 0.0001 to 1 µM
B9 (HRAS Q61L) cell line
  EC50: > 10 µM
[2]
  EC50: > 10 µM
[3]
  IC50: 0.0001 to 1 µM

## O=C(c1cccc(NS(=O)(=O)N2CCCC2)c1F)c1c[nH]c2ncncc12 [P-2032, N-[2-fluoro-3-(7H-pyrrolo[2,3-d]pyrimidine-5-carbonyl)phenyl]pyrrolidine-1-sulfonamide]
BRAF V600E
  IC50: 0.0001 to 1 µM
B9 (HRAS Q61L) cell line
  EC50: > 10 µM
[2]
  EC50: > 10 µM
[3]
  IC50: 0.0001 to 1 µM

## O=C(c1cccc(NS(=O)(=O)N2CCCC2)c1F)c1c[nH]c2ncnc(NC[C@@H]3CCCO3)c12 [P-2082, N-[2-fluoro-3-[4-[[(2S)-tetrahydrofuran-2-yl]methylamino]-7H-pyrrolo[2,3-d]pyrimidine-5-carbonyl]phenyl]pyrrolidine-1-sulfonamide]
BRAF V600E
  IC50: 0.0001 to 1 µM
B9 (HRAS Q61L) cell line
  EC50: > 10 µM
[2]
  EC50: > 10 µM
[3]
  IC50: 0.0001 to 1 µM

## CN(C)S(=O)(=O)Nc1ccc(F)c(C(=O)c2c[nH]c3ncncc23)c1F [P-2026, 5-[3-(dimethylsulfamoylamino)-2,6-difluoro-benzoyl]-7H-pyrrolo[2,3-d]pyrimidine]
BRAF V600E
  IC50: 1 to 10 µM
B9 (HRAS Q61L) cell line
  EC50: > 10 µM
[2]
  EC50: > 10 µM
[3]
  IC50: > 10 µM

## CCN(CC)S(=O)(=O)Nc1ccc(F)c(C(=O)c2c[nH]c3ncnc(NC(C)C)c23)c1F [P-2042, 5-[3-(diethylsulfamoylamino)-2,6-difluoro-benzoyl]-4-(isopropylamino)-7H-pyrrolo[2,3-d]pyrimidine]
BRAF V600E
  IC50: 0.0001 to 1 µM
B9 (HRAS Q61L) cell line
  EC50: > 10 µM
[2]
  EC50: > 10 µM
[3]
  IC50: 0.0001 to 1 µM

## Cc1cc2c(-c3sc(C(C)(C)C)nc3-c3cccc(NS(=O)(=O)N4CCCC4)c3F)ncnc2[nH]1 [P-2123, N-[3-[2-tert-butyl-5-(6-methyl-7H-pyrrolo[2,3-d]pyrimidin-4-yl)thiazol-4-yl]-2-fluoro-phenyl]pyrrolidine-1-sulfonamide]
BRAF V600E
  IC50: 0.0001 to 1 µM
B9 (HRAS Q61L) cell line
  EC50: > 10 µM
[2]
  EC50: > 10 µM
[3]
  IC50: 0.0001 to 1 µM

## CCCNc1ncnc2[nH]cc(C(=O)c3cccc(NS(=O)(=O)N(C)CC)c3F)c12 [P-2066, 5-[3-[[ethyl(methyl)sulfamoyl]amino]-2-fluoro-benzoyl]-4-(propylamino)-7H-pyrrolo[2,3-d]pyrimidine]
BRAF V600E
  IC50: 0.0001 to 1 µM
B9 (HRAS Q61L) cell line
  EC50: > 10 µM
[2]
  EC50: > 10 µM
[3]
  IC50: 0.0001 to 1 µM

## CCN(C)S(=O)(=O)Nc1ccc(F)c(C(=O)c2c[nH]c3ncnc(NC(C)C)c23)c1F [P-2117, 5-[3-[[ethyl(methyl)sulfamoyl]amino]-2,6-difluoro-benzoyl]-4-(isopropylamino)-7H-pyrrolo[2,3-d]pyrimidine]
BRAF V600E
  IC50: 0.0001 to 1 µM
B9 (HRAS Q61L) cell line
  EC50: > 10 µM
[2]
  EC50: > 10 µM
[3]
  IC50: 0.0001 to 1 µM

## O=C(c1c(F)ccc(NS(=O)(=O)N2CCOCC2)c1F)c1c[nH]c2nccc(Cl)c12 [P-2024, N-[3-(4-chloro-1H-pyrrolo[2,3-b]pyridine-3-carbonyl)-2,4-difluoro-phenyl]morpholine-4-sulfonamide]
BRAF V600E
  IC50: 0.0001 to 1 µM
B9 (HRAS Q61L) cell line
  EC50: > 10 µM
[2]
  EC50: > 10 µM
[3]
  IC50: 0.0001 to 1 µM

## COc1ccnc2[nH]cc(C(=O)c3c(F)ccc(NS(=O)(=O)N4CCOCC4)c3F)c12 [P-2023, N-[2,4-difluoro-3-(4-methoxy-1H-pyrrolo[2,3-b]pyridine-3-carbonyl)phenyl]morpholine-4-sulfonamide]
BRAF V600E
  IC50: 0.0001 to 1 µM
B9 (HRAS Q61L) cell line
  EC50: > 10 µM
[2]
  EC50: > 10 µM
[3]
  IC50: 1 to 10 µM

## O=C(c1c(F)ccc(NS(=O)(=O)C2CCOCC2)c1F)c1c[nH]c2ncnc(NCC3CC3)c12 [P-2058, N-[3-[4-(cyclopropylmethylamino)-7H-pyrrolo[2,3-d]pyrimidine-5-carbonyl]-2,4-difluoro-phenyl]tetrahydropyran-4-sulfonamide]
BRAF V600E
  IC50: 0.0001 to 1 µM
B9 (HRAS Q61L) cell line
  EC50: > 10 µM
[2]
  EC50: > 10 µM
[3]
  IC50: 0.0001 to 1 µM
